Broadly, the IC50 is the point on the concentration scale where inhibition reaches its midpoint.

In test [1] the target is Trypsin, from human pancreas (Homo sapiens, UniProt P07477). Briefly: Enzymatic assay, trypsin.
For test [2], the target named is T1, CathepsinG, from human neutrophils (Homo sapiens, UniProt P08311).
T1 sequence (P08311 21-244): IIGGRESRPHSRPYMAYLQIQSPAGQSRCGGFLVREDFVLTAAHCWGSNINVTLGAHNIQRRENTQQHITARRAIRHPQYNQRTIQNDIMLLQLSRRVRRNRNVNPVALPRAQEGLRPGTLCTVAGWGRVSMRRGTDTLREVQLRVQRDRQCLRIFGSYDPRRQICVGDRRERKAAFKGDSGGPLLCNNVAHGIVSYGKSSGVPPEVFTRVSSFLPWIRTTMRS
As to the kind of experiment: Enzymatic assay, cathepsin G. To be noted: Cathepsin G IC50.

Test [3] deals with Tryptase, from human lung. Briefly: Enzymatic assay, tryptase. To be noted: read-out: Tryptase IC50.

Where a SMILES comes first, the peptide text is derived from it.

On to `CC[C@H](C)[C@@H]1NC(=O)[C@@H]2CCCN2C(=O)[C@H]2CCCN2C(=O)[C@H](CCCCN)NC(=O)[C@@H]2CSSC[C@H](NC1=O)C(=O)N[C@@H]([C@@H](C)O)C(=O)N[C@@H](CCCCN)C(=O)N[C@@H](CO)C(=O)N[C@@H](CC(C)C)C(=O)N1CCC[C@H]1C(=O)N1CCC[C@H]1C(=O)N[C@@H](CCCNC(=N)N)C(=O)N2` [Ex. 190] (HELM PEPTIDE1{I.C.T.K.S.L.P.P.R.C.K.[dP].P}$PEPTIDE1,PEPTIDE1,2:R3-10:R3|PEPTIDE1,PEPTIDE1,1:R1-13:R2$$$V2.0), for which the IC50 in test [1] is 172 nM; in test [2] it was 1500 nM; in test [3], below 100 nM.
For `CCCC[C@@H]1NC(=O)[C@@H]2CCCN2C(=O)[C@H]2CCCN2C(=O)[C@H](CCCNC(=N)N)NC(=O)[C@@H]2CSSC[C@H](NC1=O)C(=O)N[C@@H]([C@@H](C)O)C(=O)N[C@@H](CCCCN)C(=O)N[C@@H](CO)C(=O)N[C@@H](CC(C)C)C(=O)N1CCC[C@H]1C(=O)N1CCC[C@H]1C(=O)N[C@@H](CCCCN)C(=O)N2` [Ex. 192] (HELM PEPTIDE1{[Nle].C.T.K.S.L.P.P.K.C.R.[dP].P}$PEPTIDE1,PEPTIDE1,2:R3-10:R3|PEPTIDE1,PEPTIDE1,1:R1-13:R2$$$V2.0) the same measures were 72 nM, 650 nM and 16 nM.
For `CC[C@H](C)[C@@H]1NC(=O)[C@@H]2CCCN2C(=O)[C@H]2CCCN2C(=O)[C@H](CCCNC(=N)N)NC(=O)[C@@H]2CSSC[C@H](NC1=O)C(=O)N[C@@H]([C@@H](C)O)C(=O)N[C@@H](CCCCN)C(=O)N[C@@H](CO)C(=O)N[C@@H](CCc1ccccc1)C(=O)N1CCC[C@H]1C(=O)N1CCC[C@H]1C(=O)N[C@@H]([C@@H](C)CC)C(=O)N2` [Ex. 181] (HELM PEPTIDE1{I.C.T.K.S.[O=C([C@H](CCc1ccccc1)N[*:1])[*:2]].P.P.I.C.R.[dP].P}$PEPTIDE1,PEPTIDE1,2:R3-10:R3|PEPTIDE1,PEPTIDE1,1:R1-13:R2$$$V2.0), in that order: 113 nM, 127 nM and 40 nM.
For `CC(C)C[C@@H]1NC(=O)[C@H](CO)NC(=O)[C@H](CCCCN)NC(=O)[C@H]([C@@H](C)O)NC(=O)[C@@H]2CSSC[C@H](NC(=O)[C@H](CCCCN)NC(=O)[C@@H]3CCCN3C(=O)[C@@H]3CCCN3C1=O)C(=O)N[C@@H](CCCNC(=N)N)C(=O)N1CCC[C@@H]1C(=O)N1CCC[C@H]1C(=O)N[C@@H](Cc1ccc(O)cc1)C(=O)N2` [Ex. 194] (HELM PEPTIDE1{Y.C.T.K.S.L.P.P.K.C.R.[dP].P}$PEPTIDE1,PEPTIDE1,2:R3-10:R3|PEPTIDE1,PEPTIDE1,1:R1-13:R2$$$V2.0), in that order: 431 nM, 1570 nM and 9 nM.
With `CC(C)C[C@@H]1NC(=O)[C@@H]2CCCN2C(=O)[C@H]2CCCN2C(=O)[C@H](CCCNC(=N)N)NC(=O)[C@@H]2CSSC[C@H](NC1=O)C(=O)N[C@@H]([C@@H](C)O)C(=O)N[C@@H](CCCCN)C(=O)N[C@@H](CO)C(=O)N[C@@H](CC(C)C)C(=O)N1CCC[C@H]1C(=O)N1CCC[C@H]1C(=O)N[C@@H](CCCCN)C(=O)N2` [Ex. 191] (HELM PEPTIDE1{L.C.T.K.S.L.P.P.K.C.R.[dP].P}$PEPTIDE1,PEPTIDE1,2:R3-10:R3|PEPTIDE1,PEPTIDE1,1:R1-13:R2$$$V2.0), the IC50 was 66 nM in test [1], 400 nM in test [2] and 21 nM in test [3].
For `CC[C@H](C)[C@@H]1NC(=O)[C@@H]2CCCN2C(=O)[C@H]2CCCN2C(=O)[C@H](CCCNC(=N)N)NC(=O)[C@@H]2CSSC[C@H](NC1=O)C(=O)N[C@@H]([C@@H](C)O)C(=O)N[C@@H](CCCCN)C(=O)N[C@@H](CO)C(=O)N[C@@H](CC1CCCCC1)C(=O)N1CCC[C@H]1C(=O)N1CCC[C@H]1C(=O)N[C@@H]([C@@H](C)CC)C(=O)N2` [Ex. 182] (HELM PEPTIDE1{I.C.T.K.S.[Cha].P.P.I.C.R.[dP].P}$PEPTIDE1,PEPTIDE1,2:R3-10:R3|PEPTIDE1,PEPTIDE1,1:R1-13:R2$$$V2.0), the IC50 in test [1] is 59 nM; in test [2], 111 nM; in test [3], 39 nM.
For `CC[C@H](C)[C@@H]1NC(=O)[C@@H]2CCCN2C(=O)[C@H]2CCCN2C(=O)[C@H](CCCNC(=N)N)NC(=O)[C@@H]2CSSC[C@H](NC1=O)C(=O)N[C@@H]([C@@H](C)O)C(=O)N[C@@H](CCCCN)C(=O)N[C@@H](CO)C(=O)N[C@@H](CC(C)C)C(=O)N1CCC[C@H]1C(=O)N1CCC[C@H]1C(=O)N[C@@H](Cc1c[nH]cn1)C(=O)N2` [Ex. 187] (HELM PEPTIDE1{I.C.T.K.S.L.P.P.H.C.R.[dP].P}$PEPTIDE1,PEPTIDE1,2:R3-10:R3|PEPTIDE1,PEPTIDE1,1:R1-13:R2$$$V2.0), in that order: 39 nM, 158 nM and below 100 nM.
Take `CC[C@H](C)[C@@H]1NC(=O)[C@@H]2CCCN2C(=O)[C@H]2CCCN2C(=O)[C@H](CCCNC(=N)N)NC(=O)[C@@H]2CSSC[C@H](NC1=O)C(=O)N[C@@H]([C@@H](C)O)C(=O)N[C@@H](CCCCN)C(=O)N[C@@H](CO)C(=O)N[C@@H](CC(C)C)C(=O)N1CCC[C@H]1C(=O)N1CCC[C@H]1C(=O)N[C@@H](CCCCN)C(=O)N2` [Ex. 186] (HELM PEPTIDE1{I.C.T.K.S.L.P.P.K.C.R.[dP].P}$PEPTIDE1,PEPTIDE1,2:R3-10:R3|PEPTIDE1,PEPTIDE1,1:R1-13:R2$$$V2.0): the IC50 was found to be 99 nM in test [1], 337 nM in test [2] and 15 nM in test [3].
For `CC[C@H](C)[C@@H]1NC(=O)[C@@H]2CCCN2C(=O)[C@H]2CCCN2C(=O)[C@H](CCCNC(=N)N)NC(=O)[C@@H]2CSSC[C@H](NC1=O)C(=O)N[C@@H]([C@@H](C)O)C(=O)N[C@@H](CCCCN)C(=O)N[C@@H](CO)C(=O)N[C@@H](Cc1ccc(O)cc1)C(=O)N1CCC[C@H]1C(=O)N1CCC[C@H]1C(=O)N[C@@H]([C@@H](C)CC)C(=O)N2` [Ex. 183] (HELM PEPTIDE1{I.C.T.K.S.Y.P.P.I.C.R.[dP].P}$PEPTIDE1,PEPTIDE1,2:R3-10:R3|PEPTIDE1,PEPTIDE1,1:R1-13:R2$$$V2.0), in that order: 146 nM, 243 nM and 25 nM.
For `CC[C@H](C)[C@@H]1NC(=O)[C@@H]2CCCN2C(=O)[C@H]2CCCN2C(=O)[C@H](CCCNC(=N)N)NC(=O)[C@@H]2CSSC[C@H](NC1=O)C(=O)N[C@@H]([C@@H](C)O)C(=O)N[C@@H](CCCCN)C(=O)N[C@@H](CO)C(=O)N[C@@H](CC(C)C)C(=O)N1CCC[C@H]1C(=O)N1CCC[C@H]1C(=O)N[C@@H](CCC(N)=O)C(=O)N2` [Ex. 188] (HELM PEPTIDE1{I.C.T.K.S.L.P.P.Q.C.R.[dP].P}$PEPTIDE1,PEPTIDE1,2:R3-10:R3|PEPTIDE1,PEPTIDE1,1:R1-13:R2$$$V2.0) the same measures were 34 nM, 105 nM and below 100 nM.
For `CC(C)C[C@@H]1NC(=O)[C@H](CO)NC(=O)[C@H](CCCCN)NC(=O)[C@H]([C@@H](C)O)NC(=O)[C@@H]2CSSC[C@H](NC(=O)[C@H](CCCCN)NC(=O)[C@@H]3CCCN3C(=O)[C@@H]3CCCN3C1=O)C(=O)N[C@@H](CCCNC(=N)N)C(=O)N1CCC[C@@H]1C(=O)N1CCC[C@H]1C(=O)N[C@@H](CC1CCCCC1)C(=O)N2` [Ex. 193] (HELM PEPTIDE1{[Cha].C.T.K.S.L.P.P.K.C.R.[dP].P}$PEPTIDE1,PEPTIDE1,2:R3-10:R3|PEPTIDE1,PEPTIDE1,1:R1-13:R2$$$V2.0), in that order: 35 nM, 431 nM and 6 nM.
For the compound `CC[C@H](C)[C@@H]1NC(=O)[C@@H]2CCCN2C(=O)[C@@H]2CCCN2C(=O)[C@H](CC(C)C)NC(=O)[C@H](CO)NC(=O)[C@H](CCCCN)NC(=O)[C@H]([C@@H](C)O)NC(=O)[C@@H]2CSSC[C@H](NC1=O)C(=O)N[C@@H](CCCNC(=N)N)C(=O)N1CCC[C@@H]1C(=O)N1CCC[C@H]1C(=O)N[C@@H](Cc1ccccc1)C(=O)N2` [Ex. 184] (HELM PEPTIDE1{F.C.T.K.S.L.P.P.I.C.R.[dP].P}$PEPTIDE1,PEPTIDE1,2:R3-10:R3|PEPTIDE1,PEPTIDE1,1:R1-13:R2$$$V2.0), the IC50 in test [1] was determined as 48 nM; in test [2], 221 nM; in test [3] it was 27 nM.
For `CC(C)C[C@@H]1NC(=O)[C@H](CO)NC(=O)[C@H](CCCCN)NC(=O)[C@H]([C@@H](C)O)NC(=O)[C@@H]2CSSC[C@H](NC(=O)[C@H](CCCCN)NC(=O)[C@@H]3CCCN3C(=O)[C@@H]3CCCN3C1=O)C(=O)N[C@@H](Cc1ccc(O)cc1)C(=O)N1CCC[C@@H]1C(=O)N1CCC[C@H]1C(=O)N[C@@H](CCCNC(=N)N)C(=O)N2` [Ex. 196] (HELM PEPTIDE1{R.C.T.K.S.L.P.P.K.C.Y.[dP].P}$PEPTIDE1,PEPTIDE1,2:R3-10:R3|PEPTIDE1,PEPTIDE1,1:R1-13:R2$$$V2.0), in that order: 70 nM, 2170 nM and 52 nM.
For `CC(C)C[C@@H]1NC(=O)[C@H](CO)NC(=O)[C@H](CCCCN)NC(=O)[C@H]([C@@H](C)O)NC(=O)[C@@H]2CSSC[C@H](NC(=O)[C@H](CCCCN)NC(=O)[C@@H]3CCCN3C(=O)[C@@H]3CCCN3C1=O)C(=O)N[C@@H](CCCNC(=N)N)C(=O)N1CCC[C@@H]1C(=O)N1CCC[C@H]1C(=O)N[C@@H](Cc1c[nH]c3ccccc13)C(=O)N2` [Ex. 195] (HELM PEPTIDE1{W.C.T.K.S.L.P.P.K.C.R.[dP].P}$PEPTIDE1,PEPTIDE1,2:R3-10:R3|PEPTIDE1,PEPTIDE1,1:R1-13:R2$$$V2.0) the same measures were 108 nM, 4000 nM and 12 nM.
